[invAb] = inverted abasic unit; d = 2'-deoxy (DNA); m = 2'-O-methyl; r = 2'-OH (RNA); f = 2'-fluoro
Key:
STAT6 mRNA [1] = assay: STAT6 siNA screen and dose response in human A549 cells, STAT6 mRNA by quantitative RT-PCR (Taqman); assay type: cell-based; details: for % KD STAT6 mRNA 10 nM / IC50: Table 4, human A549 cells; for % KD STAT6 mRNA 10 nM / IC50 / % KD STAT6: mean ± S.D.; for % KD STAT6 10 nM: Table 5, A549 cells, three experiments, mean ± standard deviation; for % KD STAT6: human A549 cells, 10 nM siNA, 24 hrs, normalized to GAPDH and non-targeting control, n = 3
Outline: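 A549 cells were transfected with siNA–RNAiMax complexes at a final 10 nM siNA and incubated 24 h without a medium change. STAT6 mRNA was measured by TaqMan qRT-PCR on cell lysates. Knock-down was calculated by the comparative Ct (ΔΔCt) method against the non-targeting control siNA, with relative expression taken as 2^−ΔΔCt.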

STAT6 mRNA [2] = assay: STAT6 siNA screen in mouse NIH 3T3 cells, STAT6 mRNA by quantitative RT-PCR (Taqman); assay type: cell-based; details: mouse NIH3T3 cells, 10 nM siNA, 24 hrs, normalized to GAPDH and non-targeting control, n = 2
Outline: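 NIH 3T3 cells, 5000/well, transfected after 24 h with siNA (10 nM final) via RNAiMax and harvested 24 h later. STAT6 mRNA quantified by TaqMan RT-qPCR with GAPDH; knock-down by comparative Ct (2^−ΔΔCt) against non-targeting control siNA.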

[3] = tested on: human STAT4 mRNA transcript; assay: STAT4 specificity screen in human A549 cells, STAT4 mRNA by quantitative RT-PCR; assay type: cell-based; details: three experiments, mean ± standard deviation
Procedure: A549 (human; ATCC cat# CCL-185): Cells were cultured at 37° C. in the presence of 5% CO2 and grown in Ham's F12K medium with 2 mM L-glutamine adjusted to contain 1.5 g/L sodium bicarbonate and supplemented with fetal bovine serum at a final concentration of 10%, 100 μg/mL of streptomycin, and 100 U/mL penicillin.
A series of probes and primers were used to detect the various mRNA transcripts of the genes of 13-Actin (human cell line only), and of STATE and GAPDH in mouse and human cell lines. All Taqman probes and primers for the experiments here-in described were supplied as pre-validated sets by Applied Biosystems, Inc. (see Table 2).
The assays were performed on an ABI 7900 instrument, according to the manufacturer's instructions. A TaqMan Gene Expression Master Mix (provided in the Cells-to-CTT™, Applied Biosystems, Cat #4399002) was used. The PCR reactions were carried out at 50° C. for 2 min, 95° C. for 20 min followed by 40 cycles at 95° C. for 15 secs and 60° C. for 1 min.
The expression level of the gene of interest and % knock-down was calculated using Comparative Ct method:
ΔΔCt=ΔCt(Target siNA)−ΔCt(NTC)
Relative expression level=2^−ΔΔCt
The non-targeting control siNA was, unless otherwise indicated, chosen as the value against which to calculate the % knock-down, because it is the most relevant control.
The siNAs from Table 4 were tested in human A549 cell line at a lower concentration (1 nM versus the original screening concentration of 10 nM) to determine the effect of the STATE siRNAs on the mRNA transcript of human STAT4.

eosinophilia and AHR = details: rat model of allergic disease; cited from earlier work
mouse spleen T cells = details: in vitro; cited from earlier work

## 29999-DC: STAT6 siNA duplex; sense SEQ ID NO: 62, antisense SEQ ID NO: 63; target GUUCGAUUCCUGUUGGGCU, site 1148 (sense GUUCGAUUCCUGUUGGGCUTT; antisense AGCCCAACAGGAAUCGAACUU; sense: DNA at AGT, 2'-fluoro at CU, [invAb] at 5' end, 3' end, backbone not given here; antisense: sugars from the 5' end rrrffmmfmmmmmffmmmfmm, backbone not given here) [STAT6 siNA duplex; target GUUCGAUUCCUGUUGGGCU, site 1148]
STAT6 mRNA [1]
  % KD STAT6 mRNA 10 nM: 72.8 ± 1^ %
  IC50: 48.7 ± 21.7 pM
  % KD STAT6 10 nM: 72.8 ± 1.0%
  % KD STAT6: 72.8 ± 1%
STAT6 mRNA [2]
  % KD STAT6: 53.4 ± 3.1%
[3]
  % KD STAT4 1 nM: −17.4 ± 20.9%

## NC(=O)c1cnc(Nc2ccc(N3CCOCC3)cc2)nc1NCc1c(F)ccc(F)c1F [YM341619]
Eosinophilia and AHR
  AHR: inhibited
  eosinophilia: inhibited
Mouse spleen T cells
  differentiation of mouse spleen T cells into the Th2 phenotype: inhibited

## 30005-DC: STAT6 siNA duplex; sense SEQ ID NO: 74, antisense SEQ ID NO: 75; target CUGCACAGCUUGAUAGAAA, site 755 (sense CUGCACAGCUUGAUAGAAATT; antisense UUUCUAUCAAGCUGUGCAGUU; sense: DNA at AGT, 2'-fluoro at CU, [invAb] at 5' end, 3' end, backbone not given here; antisense: sugars from the 5' end rrrffmffmmmffmfmfmmmm, backbone not given here) [STAT6 siNA duplex; target CUGCACAGCUUGAUAGAAA, site 755]
STAT6 mRNA [1]
  % KD STAT6 mRNA 10 nM: 70 ± 8.9%
  IC50: 23.2 ± 10.3 pM
  % KD STAT6 10 nM: 70.0 ± 8.9%
  % KD STAT6: 70 ± 8.9%
STAT6 mRNA [2]
  % KD STAT6: −8 ± 0.5%
[3]
  % KD STAT4 1 nM: 13.2 ± 14.4%

## 30010-DC: STAT6 siNA duplex; sense SEQ ID NO: 84, antisense SEQ ID NO: 85; target GGGACAAUGCCUUCUCUGA, site 1568 (sense GGGACAAUGCCUUCUCUGATT; antisense UCAGAGAAGGCAUUGUCCCUU; sense: sugars from the 5' end dddrfddfdffffffffdddd, [invAb] at 5' end, 3' end, backbone not given here; antisense: sugars from the 5' end rrrmmmmmmmfmffmffffmm, backbone not given here) [STAT6 siNA duplex; target GGGACAAUGCCUUCUCUGA, site 1568]
STAT6 mRNA [1]
  % KD STAT6: 6 ± 23.6%
STAT6 mRNA [2]
  % KD STAT6: −26.2 ± 0.2%

## 30026-DC: STAT6 siNA duplex; sense SEQ ID NO: 116, antisense SEQ ID NO: 117; target GCAGUGGUUUGAUGGUGUC, site 1816 (sense GCAGUGGUUUGAUGGUGUCTT; antisense GACACCAUCAAACCACUGCUU; sense: DNA at AGT, 2'-fluoro at CU, [invAb] at 5' end, 3' end, backbone not given here; antisense: sugars from the 5' end rrrmffmffmmmffmffmfmm, backbone not given here) [STAT6 siNA duplex; target GCAGUGGUUUGAUGGUGUC, site 1816]
STAT6 mRNA [1]
  % KD STAT6: 58.4 ± 8.1%
STAT6 mRNA [2]
  % KD STAT6: 59.8 ± 1.1%

## 29995-DC: STAT6 siNA duplex; sense SEQ ID NO: 54, antisense SEQ ID NO: 55; target CAGGAUGGCUCUCCACAGA, site 2009 (sense CAGGAUGGCUCUCCACAGATT; antisense UCUGUGGAGAGCCAUCCUGUU; sense: DNA at AGT, 2'-fluoro at CU, [invAb] at 5' end, 3' end, backbone not given here; antisense: sugars from the 5' end rrrmfmmmmmmffrffffmmm, backbone not given here) [STAT6 siNA duplex; target CAGGAUGGCUCUCCACAGA, site 2009]
STAT6 mRNA [1]
  % KD STAT6: 20.4 ± 5.1%
STAT6 mRNA [2]
  % KD STAT6: −6.6 ± 1.3%

## 30019-DC: STAT6 siNA duplex; sense SEQ ID NO: 102, antisense SEQ ID NO: 103; target GAAACAGCAUCUUGCCGCA, site 506 (sense GAAACAGCAUCUUGCCGCATT; antisense UGCGGCAAGAUGCUGUUUCUU; sense: DNA at AGT, 2'-fluoro at CU, [invAb] at 5' end, 3' end, backbone not given here; antisense: sugars from the 5' end rrrmmfmmmmfmffmffffmm, backbone not given here) [STAT6 siNA duplex; target …UCUUGCCGCA, site 506]
STAT6 mRNA [1]
  % KD STAT6: −9.5 ± 20.6%
STAT6 mRNA [2]
  % KD STAT6: 59.6 ± 7.3%

## 30024-DC: STAT6 siNA duplex; sense SEQ ID NO: 112, antisense SEQ ID NO: 113; target CGCUGUCUCCGGAGCUACU, site 1850 (sense CGCUGUCUCCGGAGCUACUTT; antisense AGUAGCUCCGGAGACAGCGUU; sense: DNA at AGT, 2'-fluoro at CU, [invAb] at 5' end, 3' end, backbone not given here; antisense: sugars from the 5' end rrrmmffffmmmmmfmmfmmm, backbone not given here) [STAT6 siNA duplex; target CGCUGUCUCCGGAGCUACU, site 1850]
STAT6 mRNA [1]
  % KD STAT6: 38.9 ± 11.2%
STAT6 mRNA [2]
  % KD STAT6: 19.5 ± 5.6%

## 30027-DC: STAT6 siNA duplex; sense SEQ ID NO: 118, antisense SEQ ID NO: 119; target AAGACCCGGGCAUCGCUGA, site 1025 (sense AAGACCCGGGCAUCGCUGATT; antisense UCAGCGAUGCCCGGGUCUUUU; sense: DNA at AGT, 2'-fluoro at CU, [invAb] at 5' end, 3' end, backbone not given here; antisense: sugars from the 5' end rrrmfmmfmfffmmmffffmm, backbone not given here) [STAT6 siNA duplex; target …UCGCUGA, site 1025]
STAT6 mRNA [1]
  % KD STAT6: −0.8 ± 12.4%
STAT6 mRNA [2]
  % KD STAT6: −3.3 ± 3.1%
